From US20260232876A1, “POROUS METAL STRUCTURES INCORPORATING NANOPARTICLES” (Yissum Research Development Company of the Hebrew …, priority 2023, published 2026)

Assay: Thymol retention on porous titanium in open air, remaining thymol by HPLC
Type: physicochemical
Details: 360 h

## Cc1ccc(C(C)C)c(O)c1 [free thymol, thymol]
  amount of thymol remaining in the samples: almost no thymol left
